Experimental findings from ChEMBL document CHEMBL3507680, “University of Dundee, Gates Library screen for HepG2 cell viability” are described below.

The series in a line: Human HepG2 cell viability assay in 384 well format. It counts as toxicity, cell-based. On the set-up: dose 125 nL, time 70.5 hour; concentration not given beside the values. Particulars: HepG2 cells, read-out: Inhibition.

With `CN(Cc1cc(C[C@@H]2C[C@H](N)C2(C)C)no1)c1ccccc1`, the cytotoxicity at 70.5 h is -5.24%.

Consider `O=C1NC[C@H]2CN(Cc3nccs3)CCN12`, for which the cytotoxicity at 70.5 h was -8.47%.

With `COCCOC[C@]1(CNC(=O)c2ccc(OC)cc2)C[C@@H](O)[C@@H](O)C1`, the cytotoxicity at 70.5 h is -4.22%.

With `Cn1ccnc1CNC[C@H]1Cn2cc(-c3ccccc3)nc2CO1`, the cytotoxicity at 70.5 h was -8.01%.

For `Cc1ccc(-c2cn3c(n2)CO[C@@H](CNCc2nccn2C)C3)cc1`, the cytotoxicity at 70.5 h was -5.86%.

As for `Cc1ccc2c(c1)nc1n2[C@@H](CNC(=O)c2cccnc2)COC1`, the cytotoxicity at 70.5 h was -4.19%.

Consider `Cc1cccc2c1nc1n2[C@@H](CNC(=O)c2ccccn2)COC1`, for which the cytotoxicity at 70.5 h is -1.91%.

Consider `CS(=O)(=O)c1ccc(O[C@H]2COCCN(Cc3ccncc3)C2)cc1`, for which the cytotoxicity at 70.5 h was -6.23%.

In the case of `COCC(=O)N[C@H](C)c1onc(-c2ccc(Cl)cc2)c1C(=O)O`, the cytotoxicity at 70.5 h was -1.96%.

For the compound `COCC(=O)N[C@H](C)c1onc(-c2ccc(OC)cc2)c1C(=O)O`, the cytotoxicity at 70.5 h came out at 10.8%.

With `COc1ccc(-c2noc([C@@H](C)NC(=O)NC(C)(C)C)c2C(=O)O)cc1`, the cytotoxicity at 70.5 h is -10.4%.

For `COCC(=O)N[C@H](C)c1c(-c2ccc(OC)cc2)noc1C(=O)O`, the cytotoxicity at 70.5 h is -16.4%.

Regarding `CC(=O)N[C@H](C)c1c(-c2ccc(Cl)cc2)noc1C(=O)O`, the cytotoxicity at 70.5 h was -6.07%.

Turning to `Cc1occc1C(=O)N1CCC2(CCC(=O)N(CC(N)=O)C2)CC1`, the cytotoxicity at 70.5 h was -2.77%.

For the compound `CS(=O)(=O)CCC(=O)N1CCC2(CCCN(C3CCOCC3)C2=O)C1` (configuration not stated), the cytotoxicity at 70.5 h is -9.61%.

For the compound `O=C(CSc1ccncc1)N1C[C@H]2CC[C@@H]1CN(Cc1cccnc1)C2`, the cytotoxicity at 70.5 h was -2.1%.

For `Cn1ncc2c(NCCC34CCCN3CCC4)nc(C3CCCC3)nc21`, the cytotoxicity at 70.5 h is 5.19%.

In the case of `COCCCC1(CO)CCCN(CCS(C)(=O)=O)C1` (configuration not stated), the cytotoxicity at 70.5 h is -6%.

`C[C@@H]1CN(C(=O)c2ccc(C#N)nc2)C[C@@]1(O)C1CC1`: the cytotoxicity at 70.5 h turned out to be 13.9%.

Take `CCn1ccnc1CN(C)C1CCCN(CCc2ccccc2)C1` (configuration not stated): the cytotoxicity at 70.5 h came to 1.27%.

Regarding `O=C(CCc1ccc(=O)[nH]n1)N1CCCC(COc2ccc(F)cc2)C1` (configuration not stated), the cytotoxicity at 70.5 h is -1.69%.

`O=C(c1ccsc1)N1C[C@@H](CN2CCCC2)[C@@H](CO)C1`: the cytotoxicity at 70.5 h was determined as 13.3%.

With `CN(C)C(=O)c1ccc2c(c1)N(C)C(CC(=O)NCCC(C)(C)C)CO2` (configuration not stated), the cytotoxicity at 70.5 h was -5.81%.

As to `O=S(=O)(N1CCCC1)N1CCCCC1CCc1ccccc1` (configuration not stated), the cytotoxicity at 70.5 h was -5.36%.

As to `CN(Cc1csc(-c2cccs2)n1)C(=O)CCn1ccccc1=O`, the cytotoxicity at 70.5 h was -17.2%.

With `Cc1csc(CCCNC(=O)[C@H]2CNC[C@@H](C(=O)N3CCCC3)C2)n1`, the cytotoxicity at 70.5 h was -9.44%.

As to `O=C(CSc1ncccn1)N1C[C@H]2CC[C@@H]1CN(Cc1ccncc1)C2`, the cytotoxicity at 70.5 h is -0.441%.

With `CC(=O)c1cc(CC(=O)NCc2ccc(CN(C)C)cc2)cs1`, the cytotoxicity at 70.5 h was -7.31%.

Consider `COc1cccc(N2CCN(C(=O)[C@H](O)C3CCCCC3)CC2=O)c1`, for which the cytotoxicity at 70.5 h is -8.15%.

As to `Cc1cc(-c2nn(C)c(Cl)c2CN2CCOCC2CC(=O)O)no1` (configuration not stated), the cytotoxicity at 70.5 h was -7.35%.

For `COc1ccc(OCc2nc(C(=O)N3CC(O)C3)co2)cc1`, the cytotoxicity at 70.5 h is -8.01%.

For `COc1ccccc1OCc1cc(C(=O)N2CC=CC2C(C)C)n[nH]1` (configuration not stated), the cytotoxicity at 70.5 h was -6.89%.

`O=C(c1coc(COc2cccc(F)c2)n1)N1CC[C@H](O)[C@@H](O)C1`: the cytotoxicity at 70.5 h was -9.89%.

As to `O=C(NCCCc1ccncc1)C1CCCN(Cc2ccco2)C1` (configuration not stated), the cytotoxicity at 70.5 h is 9.58%.

`CCCc1nc(C)cc(N2CCC3(CCC(=O)N(CC4CC4)C3)CC2)n1`: the cytotoxicity at 70.5 h is -11.1%.

For `O=C(c1ccc(C2CCCO2)s1)N1CCS(=O)(=O)CC1` (configuration not stated), the cytotoxicity at 70.5 h is -8.51%.

On to `O=C(CCC1CC1)N1C[C@@H](CN2CCCC2)[C@@H](CO)C1`, for which the cytotoxicity at 70.5 h was -13.2%.

Turning to `Cc1noc(C)c1C1CCCN1C(=O)CN1CC2(CCNCC2)OC1=O` (configuration not stated), the cytotoxicity at 70.5 h was determined as 19.7%.

Take `Cn1c(Cn2ccnc2)nnc1C1CCN(Cc2cccnc2N)CC1`: the cytotoxicity at 70.5 h was -9.06%.

On to `CCn1cc(CNC2CC(=O)N(CCc3cccc(Cl)c3)C2)cn1` (configuration not stated), for which the cytotoxicity at 70.5 h was -3.19%.

Turning to `Nc1nccc(N2CCCC(CO)(CCOc3ccccc3)C2)n1` (configuration not stated), the cytotoxicity at 70.5 h was 8.14%.

For `Cc1ccc(OC2(C(=O)O)CCN(C(=O)c3nc(C)oc3C)CC2)cn1`, the cytotoxicity at 70.5 h was -7.82%.

Regarding `COC1CCCN(C(=O)Nc2nc(C)n(C)n2)C1` (configuration not stated), the cytotoxicity at 70.5 h was -8.2%.

For the compound `O=C(c1ccc[nH]1)N1C[C@H]2CC[C@@H]1CN(C1Cc3ccccc3C1)C2`, the cytotoxicity at 70.5 h was -9.66%.

On to `CC(C)N1CCC(N2CCN(C3CCC3)CC2CCO)CC1` (configuration not stated), for which the cytotoxicity at 70.5 h is -9.59%.

With `COCCNC(=O)c1cc(S(=O)(=O)N2CCCCC2)cs1`, the cytotoxicity at 70.5 h is -13.8%.

In the case of `CCS(=O)(=O)N(C)c1ccc(C(=O)N2CCCC(C)C2)cc1` (configuration not stated), the cytotoxicity at 70.5 h is -7.21%.

Turning to `CC(C)C(=O)N1CCN(C(=O)c2cscn2)[C@H]2CS(=O)(=O)C[C@H]21`, the cytotoxicity at 70.5 h was -2.25%.

`Cc1ccccc1CS(=O)(=O)NCCCN1CCCCC1`: the cytotoxicity at 70.5 h was -4.67%.

As to `O=C(c1ccccc1-c1ccccc1)N1CCOC2(CNCCOC2)C1` (configuration not stated), the cytotoxicity at 70.5 h was -11.1%.

With `COCCNS(=O)(=O)c1ccc2c(c1)CCN(C(=O)c1cncn1C)C2`, the cytotoxicity at 70.5 h was -5.18%.

For `COc1ccc(Cc2nnc(SC)o2)cc1OC`, the cytotoxicity at 70.5 h is -2.03%.

With `NC(=O)C1CCN(C(=O)c2cccc(CN3CCOCC3)c2)CC1`, the cytotoxicity at 70.5 h worked out at 8.77%.

For the compound `C[C@H](O)CNC(=O)c1cnc(-c2ccccc2)nc1O`, the cytotoxicity at 70.5 h was -4.5%.

`O=C(O)[C@]12CCCN(Cc3ccncc3)[C@@H]1CCN(c1cnccn1)C2`: the cytotoxicity at 70.5 h stood at 8.46%.

Regarding `NC(=O)C1CCN(c2nc3nccc(-c4ccccc4)c3c(=O)[nH]2)CC1`, the cytotoxicity at 70.5 h is -13.2%.

As to `CN1CCC(Oc2ccc(NC(=O)c3ccccc3Br)cc2)CC1`, the cytotoxicity at 70.5 h was -7.15%.

In the case of `CN(C)C(=O)Cc1ccc(NC(=O)NC2CCCCC2)cc1`, the cytotoxicity at 70.5 h is -10.4%.

For the compound `Cc1nn(-c2ccccc2)c2c1C(c1ccc(C(=O)O)cc1)CC(=O)N2` (configuration not stated), the cytotoxicity at 70.5 h was -3.05%.

Turning to `CCC(NC(=O)C1CCN(S(C)(=O)=O)CC1)c1ccc(OC)c(C)c1` (configuration not stated), the cytotoxicity at 70.5 h is -9.2%.

Regarding `Cc1cc(=O)n(CC(=O)Nc2ccc(C(N)=O)cc2)nc1C`, the cytotoxicity at 70.5 h is -4.34%.

For `Cc1nc(N2CCN(C(=O)C(C)(C)C)CC2)cc(-n2cnc(C)c2C)n1`, the cytotoxicity at 70.5 h worked out at 13%.

`N#Cc1ccc(C2CC(=O)Nc3c2cnn3C2CCCC2)cc1` (configuration not stated): the cytotoxicity at 70.5 h was -2.74%.

Consider `CCNC(=O)[C@@H]1CCCN1[C@@H](C(=O)NC)c1ccccc1OC`, for which the cytotoxicity at 70.5 h is -8.29%.

For `CNC(=O)[C@@H](c1ccccc1OC)N1CCC[C@H]1C(=O)N1CC[C@@H](O)C1`, the cytotoxicity at 70.5 h is -3.98%.

Consider `COCCOC[C@]1(CNCc2ccc(F)cc2)C[C@@H](O)[C@@H](O)C1`, for which the cytotoxicity at 70.5 h is 11.8%.

In the case of `C[C@@H](NCc1cccc(Cl)c1)c1onc(-c2ccc(F)cc2)c1C(=O)O`, the cytotoxicity at 70.5 h is -2.58%.
